The target of assay [1] is T1, EmrAB efflux pump (Escherichia coli, UniProt P0AEJ0).
T1 construct: endogenous in cells; host or cells: E. coli MG1655 with aspC/proA on pProNde; E. coli BL21 (DE3) with aspC/proA on pET30
The assay is described as follows: Monatin efflux per dry cell weight after induction of the EmrAB efflux pump with CCCP. The assay is classed as cell-based. The conditions noted are these: for increase in monatin/dcw: 31 hours, vs control. The procedure: The strains used for the experiment included E. coli MG1655 : : aspC/proA/pProNde and E. coli BL21 (DE3) : : aspC/proA/pET30. For inoculum, the E. coli strains were grown overnight at 37° C. and 250 rpm in Luria-Bertani (“LB”) medium with 50 μg/mL kanamycin.
For the experimental treatments, Trp-1+ glucose medium, a minimal medium that has been used for increased production of tryptophan in E. coli cells (Zeman, et al. Folia Microbiol. 35:200-204, (1990)), was prepared as follows. To 800 mL nanopure water the following reagents were added: 2 g (NH4)2SO4 and 13.6 g KH2PO4. The pH was adjusted to 7.0, the volume was increased to 948 mL, and the medium was autoclaved. Following sterilization, 0.2 g MgSO4.7H2O, 0.01 g CaCl2.2H2O, and 0.5 mg FeSO4.7H2O were added to the medium in a 1.8 mL volume followed by addition of 0.2 mL of Neidhardt's micronutrient solution. Neidhardt, F. C., et al., “Culture medium for Enterobacteria,” J. Bacteriol. 119:736-746 (1974). Neidhardt's medium includes (per liter): 0.18 g (NH4)6(MO7)24.4H2O, 1.24 g H3BO3, 0.36 g CoCl2.6H2O, 0.12 g CuSO4 (anhydrous), 0.8 g MnCl2.4H2O, and 0.14 g ZnSO4.7H2O. A 50% glucose solution was prepared separately and sterile-filtered. Forty mL of glucose solution and 10 mL of 1 M 3-Morpholinopropanesulfonic acid (“MOPS”) buffer were added to the base medium (950 mL) for a 1 L final volume.
Conditions for the treatments included 250 rpm agitation throughout and 37° C. up to induction, then, 30° C. following induction. At 0.5-0.6 OD600 nm, induction of the plasmid genes was initiated. At induction, 0.5 mM IPTG, 0.5% arabinose, 0.5 mM pyridoxine hydrochloride, and 0.2 mL of Balch's vitamins were added. […] Some treatments included 10 μM carbonyl cyanide 3-chlorophenylhydrazone (“CCCP”) addition to initial medium. One treatment included an additional 10 μM CCCP dose at 3.5 hours following induction. CCCP induces the EmrB efflux system. Samples for monatin analysis and dry cell weight determination were taken at 10, 15.5, 25.6 and 31 hours. Monatin analysis was preformed as described in Example 13.
Analyses of mixtures for monatin and tryptophan derived from in vitro or in vivo biochemical reactions were performed using a Waters/Micromass liquid chromatography-tandem mass spectrometry (“LC/MS/MS”) instrument including a Waters 2795 liquid chromatograph with a Waters 996 Photo-Diode Array (PDA) absorbance monitor placed in series between the chromatograph and a Micromass Quattro Ultima triple quadrupole mass spectrometer. LC separations were made using an Xterra MS C8 reversed-phase chromatography column, 2.1 mm×250 mm at 40° C. The LC mobile phase consisted of A) water containing 0.05% (v/v) trifluoroacetic acid and B) methanol containing 0.05% (v/v) trifluoroacetic acid.
The gradient elution was linear from 5% B to 35% B, 0-4 min, linear from 35% B to 60% B, 4-6.5 min, linear from 60% B to 90% B, 6.5-7 min, isocratic at 90% B 7-11 min, linear from 90% B to 95% B, 11-12 min, linear from 95% B to 5% B, 12-13 min, with a 5 min re-equilibration period between runs. The flow rate was 0.25 mL/min, and PDA absorbance was monitored from 200 nm to 400 nm. All parameters of the ESI-MS were optimized and selected based on generation of protonated molecular ions ([M+H]^+) of the analytes of interest, and production of characteristic fragment ions. The following instrumental parameters were used for LC/MS/MS Multiple Reaction Monitoring (“MRM”) analysis of monatin and tryptophan: Capillary: 3.5 kV; Cone: 40 V; Hex 1: 20 V; Aperture: 0 V; Hex 2: 0 V; Source temperature: 100° C.; Desolvation temperature: 350° C.; Desolvation gas: 500 L/h; Cone gas: 50 L/h; Low mass resolution (Q1): 12.0; High mass resolution (Q1): 12.0; Ion energy: 0.2; Entrance: −5 V; Collision Energy: 8; Exit: 1V; Low mass resolution (Q2): 15; High mass resolution (Q2): 15; Ion energy (Q2): 3.5; Multiplier: 650. […]

For assay [2], the system named is E. coli BL21DE3ΔemrB::aspCproApET30. The experiment in a line: Growth (optical density) with CCCP, emrB knockout mutant. The assay is classed as cell-based, Escherichia coli. The conditions noted are these: 20 μM CCCP. On the procedure: (§1) Single chloramphenicol-resistant colonies were purified by restreaking on appropriate selective media and single colonies were tested by PCR as previously described for the BW25113 knockout strains, to verify the presence of the emrB and acrAB knockouts. The effects of the emrB and acrAB knockouts on the EmrAB and AcrAB transporter systems respectively were determined by assessing the phenotype of the transport mutants using appropriate antibiotics and comparison to wild type control microorganisms as shown in Table 3.1 and Table 3.2 below.

The test system of assay [3] is E. coli BL21DE3::aspCproApET30. The assay is described as follows: Growth (optical density) with CCCP, wild type control. The assay is classed as cell-based, Escherichia coli. The conditions noted are these: 20 μM CCCP. The procedure: as §1
Assay [4] deals with E. coli MG1655::pCECNde/4978 DAT/SEQ ID NO. 42. The assay is described as follows: R,R monatin excreted by E. coli with D-amino acid treatment. The assay is classed as cell-based, Escherichia coli. The conditions noted are these: 5 mM D-amino acid treatment added 3 hours following induction. The procedure:
For inoculum preparation, the E. coli MG1655 : : pCECNde/4978 DAT/SEQ ID NO. 42 were grown overnight at 37° C. with shaking at 250 rpm in Luria-Bertani (“LB”) medium with 25 μg/mL chloramphenicol. For the experimental treatments, Trp-1+glucose medium, a minimal medium that has been used for increased production of tryptophan in E. coli cells (Zeman et al. Folia Microbiol. 35:200-4, 1990), was prepared as follows. To 800 mL nanopure water the following reagents were added: 2 g (NH4)2SO4, 13.6 g KH2PO4. The pH was adjusted to 7.0, the volume was increased to 948 mL, and the medium was autoclaved. Following sterilization, 0.2 g MgSO4.7H2O, 0.01 g CaCl2.2H2O, and 0.5 mg FeSO4.7H2O were added to the medium in a 1.8 mL volume followed by addition of 0.2 mL of Neidhardt's micronutrient solution (Neidhardt F. C., Bloch P. L., and Smith D. F., 1974. Culture medium for Enterobacteria. J. Bacteriol. 119: 736-746). Neidhardt's medium includes (per liter): 0.18 g (NH4)6(MO7)24.4H2O, 1.24 g H3BO3, 0.36 g CoCl2.6H2O, 0.12 g CuSO4 (anhydrous), 0.8 g MnCl2.4H2O, and 0.14 g ZnSO4.7H2O. A 50% glucose solution was prepared separately and sterile-filtered. […]
The monatin from the 48 hour samples was concentrated via a solid phase extraction (“SPE”) column (see Example 27). Then, the R,R and S,S stereoisomers were analyzed by the method of Example 13.

The mark [5] stands for this setting: E. coli BL21 (DE3)::aspCproA pET30, 10 μM CCCP.
Setting [6] is: E. coli BL21 (DE3)::aspCproA pET30, 10 μM CCCP + 10 μM CCCP.
The mark [7] stands for this setting: E. coli MG1655::aspCproA pProNde, 10 μM CCCP.

T1 sequence (P02930 23-493): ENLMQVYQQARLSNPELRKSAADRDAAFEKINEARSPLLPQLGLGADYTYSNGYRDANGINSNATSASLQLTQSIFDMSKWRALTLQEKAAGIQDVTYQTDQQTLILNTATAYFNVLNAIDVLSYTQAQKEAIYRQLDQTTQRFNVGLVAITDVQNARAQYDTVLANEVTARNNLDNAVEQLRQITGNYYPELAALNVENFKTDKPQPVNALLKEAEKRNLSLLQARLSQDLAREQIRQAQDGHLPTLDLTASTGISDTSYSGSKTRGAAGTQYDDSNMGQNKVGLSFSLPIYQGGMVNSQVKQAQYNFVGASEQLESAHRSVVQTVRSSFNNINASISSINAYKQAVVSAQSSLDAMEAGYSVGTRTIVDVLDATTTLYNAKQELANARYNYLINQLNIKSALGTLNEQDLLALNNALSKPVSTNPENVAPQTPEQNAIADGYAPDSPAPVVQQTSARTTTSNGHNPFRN
T1 sequence (P0AEJ0 whole entry): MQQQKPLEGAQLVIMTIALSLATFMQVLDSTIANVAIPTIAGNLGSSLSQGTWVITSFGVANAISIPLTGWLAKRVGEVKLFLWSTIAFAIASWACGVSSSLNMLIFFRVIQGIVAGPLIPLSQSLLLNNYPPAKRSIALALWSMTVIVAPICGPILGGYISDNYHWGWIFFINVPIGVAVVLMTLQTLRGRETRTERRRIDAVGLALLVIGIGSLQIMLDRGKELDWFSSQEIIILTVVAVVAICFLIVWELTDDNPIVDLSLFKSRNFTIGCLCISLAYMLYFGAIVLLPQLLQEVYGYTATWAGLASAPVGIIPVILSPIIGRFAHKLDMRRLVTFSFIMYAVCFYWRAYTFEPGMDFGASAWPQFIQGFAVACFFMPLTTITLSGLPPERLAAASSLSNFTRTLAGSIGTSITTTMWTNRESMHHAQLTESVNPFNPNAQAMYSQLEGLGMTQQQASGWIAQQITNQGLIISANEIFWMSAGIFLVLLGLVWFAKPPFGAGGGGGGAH
T1 sequence (P27303 whole entry, further chain): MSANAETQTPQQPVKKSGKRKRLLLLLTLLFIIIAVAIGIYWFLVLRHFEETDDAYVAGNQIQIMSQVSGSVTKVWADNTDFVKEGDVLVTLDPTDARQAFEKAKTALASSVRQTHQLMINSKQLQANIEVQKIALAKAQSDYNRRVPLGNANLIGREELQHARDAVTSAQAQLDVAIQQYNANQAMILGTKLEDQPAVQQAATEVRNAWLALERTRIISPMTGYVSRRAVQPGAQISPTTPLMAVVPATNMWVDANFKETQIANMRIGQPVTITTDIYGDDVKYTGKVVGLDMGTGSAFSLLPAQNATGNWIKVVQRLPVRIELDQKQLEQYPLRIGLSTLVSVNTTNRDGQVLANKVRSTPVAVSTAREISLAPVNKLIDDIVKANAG

`N#CC(C#N)=NNc1cccc(Cl)c1` [CCCP, carbonyl cyanide 3-chlorophenylhydrazone]: the increase in monatin/dcw result in assay [1] (E. coli BL21 (DE3)::aspC proA pET30, one addition (10 μM) of CCCP) was “greater than 1.8 fold”; in assay [1] (E. coli BL21 (DE3)::aspC proA pET30, two additions (20 μM) of CCCP), above 3.5 fold; in assay [1] (E. coli MG1655::aspCproA pProNde), 2 fold. Moreover, the “Monatin/dry cell weight at run hour 10” value came to 6.4 mg/g in assay [1] (setting [5]) and 16.2 mg/g in assay [1] (setting [6]). The “Monatin/dry cell weight at run hour 15.5” value in assay [1] (setting [5]) worked out at 22.5 mg/g; in assay [1] (setting [6]) it was 38.0 mg/g; in assay [1] (setting [7]), 0.7 mg/g. For the same compound, the “Monatin/dry cell weight at run hour 25.6” value in assay [1] (setting [5]) amounted to 34.3 mg/g; in assay [1] (setting [6]) it was 52.1 mg/g; in assay [1] (setting [7]) it was 6.7 mg/g. Besides, the results for the “Monatin/dry cell weight at run hour 31” value in assay [1] (setting [5]), in assay [1] (setting [6]) and in assay [1] (setting [7]) were 33.0 mg/g, 64.2 mg/g and 12.4 mg/g, respectively. Further, the decrease in growth entry in assay [2] (deletion strain) is “eighty fold/ninety nine percent decrease in growth”. The figures for the “Optical Density @ 600 nM, 6 hours” value in assay [2] (emrB knockout mutant) and in assay [3] were 0.024 and 0.034, respectively. Moreover, the entries for the “Optical Density @ 600 nM, 24 hours” value in assay [2] (emrB knockout mutant) and in assay [3] were 0.014 and 1.113, respectively.

In the case of `C[C@@H](N)C(=O)O` [D-alanine], the “48 hour Monatin/dry cell wt., Total Monatin” value in assay [4] came to 0.33 mg/g.

Consider `N[C@H](CCC(=O)O)C(=O)O` [D-glutamate], for which the “48 hour Monatin/dry cell wt., Total Monatin” value in assay [4] is 0.47 mg/g.

These data come from patent US8158389B2, “Products and methods for in vivo secretion of monatin” (priority 2005, dated 2012).
